Test results taken from patent US8962843B2, “1,3,4-oxadiazole and 1,3,4-thiadiazole beta-lactamase inhibitors” (priority 2012, dated 2015).
Where a name gives a salt, the structure may show the parent alone.

What was measured:
[1] = test system: bacterial strains that express KPC β-lactamases; test: Standard BLI potentiation MIC / synergy MIC assays, strains expressing KPC β-lactamases; type: cell-based; details: in combination with a β-lactam; comparator Avibactam
Summary of the method: (§1)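 Broth microdilution in cation-adjusted Mueller Hinton broth per CLSI M07-A9, ~10^5 CFU/mL, 18-20 h at 37 °C with aeration; engineered E. coli carrying β-lactamase plasmids kept on 25 μg/mL tetracycline. β-lactam MIC measured in 2-fold dilutions (128-0.13 μg/mL) with BLI fixed at 4 μg/mL; sMIC titrates BLI against a fixed β-lactam concentration. MIC = lowest concentration without visible turbidity.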

[2] = test system: bacterial strains that express the class D cephalosporinase OXA-15; test: Standard BLI potentiation MIC / synergy MIC assays, strains expressing OXA-15; type: cell-based, E. coli; details: in combination with a β-lactam; comparator Avibactam (CCC)
Summary of the method: as §1

NC1CC(NCc2nnc([C@@H]3CC[C@@H]4CN3C(=O)N4OS(=O)(=O)O)o2)C1 (stereo partly drawn) [Compound 755, (2S,5R)-2-(5-(((3-aminocyclobutyl)amino)methyl)-1,3,4-oxadiazol-2-yl)-7-oxo-1,6-diazabicyclo[3.2.1]octan-6-yl hydrogen sulfate]
activity and/or spectrum of activity against bacterial strains that express KPC β-lactamases, compared with Avibactam [1]: more active than Avibactam for at least one, bacterial strain that expresses KPC β-lactamase and/or show a better spectrum of activity | activity against bacterial strains that express the class D cephalosporinase OXA-15, compared with Avibactam [2]: more active than Avibactam

O=C1N2C[C@@H](CC[C@H]2c2nnc(C3CCNC3)o2)N1OS(=O)(=O)O (stereo partly drawn) [Compound 710, (2S,5R)-7-oxo-2-(5-(pyrrolidin-3-yl)-1,3,4-oxadiazol-2-yl)-1,6-diazabicyclo[3.2.1]octan-6-yl hydrogen sulfate]
activity and/or spectrum of activity against bacterial strains that express KPC β-lactamases, compared with Avibactam [1]: more active than Avibactam for at least one, bacterial strain that expresses KPC β-lactamase and/or show a better spectrum of activity | activity against bacterial strains that express the class D cephalosporinase OXA-15, compared with Avibactam [2]: more active than Avibactam

N[C@H]1CN[C@@H](c2nnc([C@@H]3CC[C@@H]4CN3C(=O)N4OS(=O)(=O)O)o2)C1 [Compound 761, (2S,5R)-2-(5-((2R,4R)-4-aminopyrrolidin-2-yl)-1,3,4-oxadiazol-2-yl)-7-oxo-1,6-diazabicyclo[3.2.1]octan-6-yl hydrogen sulfate]
activity and/or spectrum of activity against bacterial strains that express KPC β-lactamases, compared with Avibactam [1]: more active than Avibactam for at least one, bacterial strain that expresses KPC β-lactamase and/or show a better spectrum of activity | activity against bacterial strains that express the class D cephalosporinase OXA-15, compared with Avibactam [2]: more active than Avibactam

CNCCc1nnc([C@@H]2CC[C@@H]3CN2C(=O)N3OS(=O)(=O)O)o1 [Compound 722, (2S,5R)-2-(5-(2-(methylamino)ethyl)-1,3,4-oxadiazol-2-yl)-7-oxo-1,6-diazabicyclo[3.2.1]octan-6-yl hydrogen sulfate]
activity and/or spectrum of activity against bacterial strains that express KPC β-lactamases, compared with Avibactam [1]: more active than Avibactam for at least one, bacterial strain that expresses KPC β-lactamase and/or show a better spectrum of activity | activity against bacterial strains that express the class D cephalosporinase OXA-15, compared with Avibactam [2]: more active than Avibactam

N=C(N)N[C@H]1C[C@@H](c2nnc([C@@H]3CC[C@@H]4CN3C(=O)N4OS(=O)(=O)O)s2)C1 [Compound 784, (2S,5R)-2-(5-((1s,3R)-3-guanidinocyclobutyl)-1,3,4-thiadiazol-2-yl)-7-oxo-1,6-diazabicyclo[3.2.1]octan-6-yl hydrogen sulfate]
activity and/or spectrum of activity against bacterial strains that express KPC β-lactamases, compared with Avibactam [1]: more active than Avibactam for at least one, bacterial strain that expresses KPC β-lactamase and/or show a better spectrum of activity | activity against bacterial strains that express the class D cephalosporinase OXA-15, compared with Avibactam [2]: more active than Avibactam

N[C@H]1C[C@H](CCc2nnc([C@@H]3CC[C@@H]4CN3C(=O)N4OS(=O)(=O)O)o2)C1 [Compound 753, (2S,5R)-2-(5-(2-((1r,3R)-3-aminocyclobutyl)ethyl)-1,3,4-oxadiazol-2-yl)-7-oxo-1,6-diazabicyclo[3.2.1]octan-6-yl hydrogen sulfate]
activity and/or spectrum of activity against bacterial strains that express KPC β-lactamases, compared with Avibactam [1]: more active than Avibactam for at least one, bacterial strain that expresses KPC β-lactamase and/or show a better spectrum of activity | activity against bacterial strains that express the class D cephalosporinase OXA-15, compared with Avibactam [2]: more active than Avibactam

N=C(N)Nc1nnc([C@@H]2CC[C@@H]3CN2C(=O)N3OS(=O)(=O)O)o1 [Compound 738, (2S,5R)-2-(5-guanidino-1,3,4-oxadiazol-2-yl)-7-oxo-1,6-diazabicyclo[3.2.1]octan-6-yl hydrogen sulfate]
activity and/or spectrum of activity against bacterial strains that express KPC β-lactamases, compared with Avibactam [1]: more active than Avibactam for at least one, bacterial strain that expresses KPC β-lactamase and/or show a better spectrum of activity | activity against bacterial strains that express the class D cephalosporinase OXA-15, compared with Avibactam [2]: more active than Avibactam

N[C@H]1C[C@H](Cc2nnc([C@@H]3CC[C@@H]4CN3C(=O)N4OS(=O)(=O)O)o2)C1 [Compound 751, (2S,5R)-2-(5-(((1r,3S)-3-aminocyclobutyl)methyl)-1,3,4-oxadiazol-2-yl)-7-oxo-1,6-diazabicyclo[3.2.1]octan-6-yl hydrogen sulfate]
activity and/or spectrum of activity against bacterial strains that express KPC β-lactamases, compared with Avibactam [1]: more active than Avibactam for at least one, bacterial strain that expresses KPC β-lactamase and/or show a better spectrum of activity | activity against bacterial strains that express the class D cephalosporinase OXA-15, compared with Avibactam [2]: more active than Avibactam

O=C1N2C[C@@H](CC[C@H]2c2nnc(CC3CCNC3)o2)N1OS(=O)(=O)O (stereo partly drawn) [Compound 764, (2S,5R)-7-oxo-2-(5-(pyrrolidin-3-ylmethyl)-1,3,4-oxadiazol-2-yl)-1,6-diazabicyclo[3.2.1]octan-6-yl hydrogen sulfate]
activity and/or spectrum of activity against bacterial strains that express KPC β-lactamases, compared with Avibactam [1]: more active than Avibactam for at least one, bacterial strain that expresses KPC β-lactamase and/or show a better spectrum of activity | activity against bacterial strains that express the class D cephalosporinase OXA-15, compared with Avibactam [2]: more active than Avibactam
